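A five-concentration, 48-hour dose response in 96-well plates underlies each endpoint, interpolated linearly between surrounding concentrations. GI50 marks 50% less growth. TGI denotes the concentration required for complete inhibition of growth.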
How the values were obtained:
Experiment in all cases: DTP human tumour cell line panel, 48 h
HCT-15 colon = tested on: HCT-15 colon
HOP-92 NSCLC = tested on: HOP-92 NSCLC
LOX IMVI melanoma = tested on: LOX IMVI melanoma
DU-145 prostate = tested on: DU-145 prostate
OVCAR-4 ovarian = tested on: OVCAR-4 ovarian
UO-31 renal = tested on: UO-31 renal
RPMI-8226 leukemia = tested on: RPMI-8226 leukemia
IGROV1 ovarian = tested on: IGROV1 ovarian
HCC-2998 colon = tested on: HCC-2998 colon
SK-MEL-2 melanoma = tested on: SK-MEL-2 melanoma
SK-MEL-28 melanoma = tested on: SK-MEL-28 melanoma
SNB-75 CNS = tested on: SNB-75 CNS
SK-MEL-5 melanoma = tested on: SK-MEL-5 melanoma
COLO 205 colon = tested on: COLO 205 colon
HS 578T breast = tested on: HS 578T breast
NCI-H23 lung = tested on: NCI-H23 lung
TK-10 renal = tested on: TK-10 renal
NCI-H522 lung = tested on: NCI-H522 lung
MALME-3M melanoma = tested on: MALME-3M melanoma
OVCAR-3 ovarian = tested on: OVCAR-3 ovarian
NCI-H226 lung = tested on: NCI-H226 lung
SK-OV-3 ovarian = tested on: SK-OV-3 ovarian
SNB-19 CNS = tested on: SNB-19 CNS
A549 NSCLC = tested on: A549 NSCLC
EKVX NSCLC = tested on: EKVX NSCLC
NCI-H460 lung = tested on: NCI-H460 lung
PC-3 prostate = tested on: PC-3 prostate
UACC-62 melanoma = tested on: UACC-62 melanoma
SW-620 colon = tested on: SW-620 colon
HL-60(TB) leukemia = tested on: HL-60(TB) leukemia
SF-295 CNS = tested on: SF-295 CNS
OVCAR-5 ovarian = tested on: OVCAR-5 ovarian
RXF 393 renal = tested on: RXF 393 renal
786-0 renal = tested on: 786-0 renal
SF-539 CNS = tested on: SF-539 CNS
HT29 colon = tested on: HT29 colon
CCRF-CEM leukemia = tested on: CCRF-CEM leukemia
M14 melanoma = tested on: M14 melanoma
HCT-116 colon = tested on: HCT-116 colon
KM12 colon = tested on: KM12 colon
U251 CNS = tested on: U251 CNS
ACHN renal = tested on: ACHN renal
MCF7 breast = tested on: MCF7 breast
MDA-MB-435 = tested on: MDA-MB-435
MDA-MB-231 breast = tested on: MDA-MB-231 breast
SN12C renal = tested on: SN12C renal
BT-549 breast = tested on: BT-549 breast
SF-268 CNS = tested on: SF-268 CNS
UACC-257 melanoma = tested on: UACC-257 melanoma
NCI/ADR-RES ovarian = tested on: NCI/ADR-RES ovarian
OVCAR-8 ovarian = tested on: OVCAR-8 ovarian
HOP-62 NSCLC = tested on: HOP-62 NSCLC
A498 renal = tested on: A498 renal
T-47D breast = tested on: T-47D breast

`CN(C)CCCn1c2c(c3ccc(-c4ccn[nH]4)cc3c1=O)C(=O)c1ccccc1-2` showed a GI50 (HCT-15 colon) of 0.0915 µM, a TGI (HCT-15 colon) of 1.48 µM and a GI50 (HOP-92 NSCLC) of 0.129 µM. The TGI (HOP-92 NSCLC) was 10.9 µM, the GI50 (LOX IMVI melanoma) was 0.104 µM and the TGI (LOX IMVI melanoma) was 1.46 µM. The GI50 (DU-145 prostate) was 0.197 µM, the TGI (DU-145 prostate) was 10.5 µM and the GI50 (OVCAR-4 ovarian) was 1.45 µM. For the same molecule, the TGI (OVCAR-4 ovarian) was 4.06 µM, the GI50 (UO-31 renal) was 0.301 µM and the TGI (UO-31 renal) was 1.92 µM. It also gave a GI50 (RPMI-8226 leukemia) of 0.115 µM, a TGI (RPMI-8226 leukemia) of 1.39 µM and a GI50 (IGROV1 ovarian) of 0.583 µM. The TGI (IGROV1 ovarian) was 2.51 µM, the GI50 (HCC-2998 colon) was 10 µM and the TGI (HCC-2998 colon) was 24 µM. For the same molecule, the GI50 (SK-MEL-2 melanoma) was 18.2 µM, the TGI (SK-MEL-2 melanoma) was 35.8 µM and the GI50 (SK-MEL-28 melanoma) was 2.01 µM. It also gave a TGI (SK-MEL-28 melanoma) of 5.65 µM, a GI50 (SNB-75 CNS) of 1.39 µM and a TGI (SNB-75 CNS) of 17.3 µM. It also gave a GI50 (SK-MEL-5 melanoma) of 0.481 µM, a TGI (SK-MEL-5 melanoma) of 16.4 µM and a GI50 (COLO 205 colon) of 4.92 µM. It also gave a TGI (COLO 205 colon) of 23.7 µM, a GI50 (HS 578T breast) of 4.9 µM and a TGI (HS 578T breast) of 27.1 µM. It also gave a GI50 (NCI-H23 lung) of 0.243 µM, a TGI (NCI-H23 lung) of 1.83 µM and a GI50 (TK-10 renal) of 2.75 µM. It also gave a TGI (TK-10 renal) of 18.8 µM, a GI50 (NCI-H522 lung) of 0.836 µM and a TGI (NCI-H522 lung) of 18 µM. For the same molecule, the GI50 (MALME-3M melanoma) was 0.931 µM, the TGI (MALME-3M melanoma) was 2.47 µM and the GI50 (OVCAR-3 ovarian) was 6.09 µM. For the same molecule, the TGI (OVCAR-3 ovarian) was 21.5 µM, the GI50 (NCI-H226 lung) was 0.273 µM and the TGI (NCI-H226 lung) was 1.53 µM. For the same molecule, the GI50 (SK-OV-3 ovarian) was 1.21 µM, the TGI (SK-OV-3 ovarian) was 11.3 µM and the GI50 (SNB-19 CNS) was 0.332 µM. For the same molecule, the TGI (SNB-19 CNS) was 1.82 µM, the GI50 (A549 NSCLC) was 0.0578 µM and the TGI (A549 NSCLC) was 1.42 µM. For the same molecule, the GI50 (EKVX NSCLC) was 2.91 µM, the TGI (EKVX NSCLC) was 20.6 µM and the GI50 (NCI-H460 lung) was 0.0363 µM. It also gave a TGI (NCI-H460 lung) of 1.55 µM, a GI50 (PC-3 prostate) of 1.21 µM and a TGI (PC-3 prostate) of 2.72 µM. The GI50 (UACC-62 melanoma) was 0.718 µM, the TGI (UACC-62 melanoma) was 18.9 µM and the GI50 (SW-620 colon) was 0.204 µM. It also gave a TGI (SW-620 colon) of 2.17 µM, a GI50 (HL-60(TB) leukemia) of 0.0346 µM and a TGI (HL-60(TB) leukemia) of 0.771 µM. For the same molecule, the GI50 (SF-295 CNS) was 0.354 µM, the TGI (SF-295 CNS) was 13.6 µM and the GI50 (OVCAR-5 ovarian) was 1.51 µM. It also gave a TGI (OVCAR-5 ovarian) of 5.47 µM, a GI50 (RXF 393 renal) of 1.66 µM and a TGI (RXF 393 renal) of 9.57 µM. The GI50 (786-0 renal) was 0.218 µM, the TGI (786-0 renal) was 1.82 µM and the GI50 (SF-539 CNS) was 1.04 µM. For the same molecule, the TGI (SF-539 CNS) was 6.29 µM, the GI50 (HT29 colon) was 0.344 µM and the TGI (HT29 colon) was 1.99 µM. The GI50 (CCRF-CEM leukemia) was 0.0291 µM, the TGI (CCRF-CEM leukemia) was 1.04 µM and the GI50 (M14 melanoma) was 1.65 µM. It also gave a TGI (M14 melanoma) of 13.9 µM, a GI50 (HCT-116 colon) of 0.391 µM and a TGI (HCT-116 colon) of 2.23 µM. It also gave a GI50 (KM12 colon) of 0.527 µM, a TGI (KM12 colon) of 2.08 µM and a GI50 (U251 CNS) of 0.183 µM. The TGI (U251 CNS) was 1.57 µM, the GI50 (ACHN renal) was 0.0948 µM and the TGI (ACHN renal) was 1.93 µM. It also gave a GI50 (MCF7 breast) of 0.0378 µM, a TGI (MCF7 breast) of 1.54 µM and a GI50 (MDA-MB-435) of 10.3 µM. For the same molecule, the TGI (MDA-MB-435) was 23.7 µM, the GI50 (MDA-MB-231 breast) was 1.27 µM and the TGI (MDA-MB-231 breast) was 2.84 µM. It also gave a GI50 (SN12C renal) of 0.249 µM, a TGI (SN12C renal) of 10 µM and a GI50 (BT-549 breast) of 3.1 µM. It also gave a TGI (BT-549 breast) of 21.1 µM, a GI50 (SF-268 CNS) of 1.85 µM and a TGI (SF-268 CNS) of 15 µM. It also gave a GI50 (UACC-257 melanoma) of 12.3 µM, a TGI (UACC-257 melanoma) of 29.1 µM and a GI50 (NCI/ADR-RES ovarian) of 1.48 µM. It also gave a TGI (NCI/ADR-RES ovarian) of 4.76 µM, a GI50 (OVCAR-8 ovarian) of 0.163 µM and a TGI (OVCAR-8 ovarian) of 2.27 µM. For the same molecule, the GI50 (HOP-62 NSCLC) was 0.181 µM, the TGI (HOP-62 NSCLC) was 11.6 µM and the GI50 (A498 renal) was 10.6 µM. For the same molecule, the TGI (A498 renal) was 30.9 µM, the GI50 (T-47D breast) was 0.627 µM and the TGI (T-47D breast) was 20.9 µM.
